Where “and” joins values, the source holds several entries; their conditions need not be identical. Equal values may be shown once.
Experiments:
[1] = system: Madin-Darby Canine Kidney (MDCK) cells; assay: MDCK in vitro permeability assay, wild type MDCK cells with no inhibitor (A→B); type: in vitro ADME; settings: no Pgp inhibitor, apical to basolateral
Procedure: (§1) Compounds were tested for permeability in an MDCK permeability assay. This assay measures the ability of compounds to cross a layer of Madin-Darby Canine Kidney (MDCK) cells from the apical to basolateral side (A→B). This measurement is predictive of the ability of compounds to be absorbed in the gut following oral dosing, an essential characteristic of an orally administered small molecule integrin inhibitor drug.
(§2) The assay is run in two formats. One uses wild type MDCK cells with no inhibitor. This method works well in determining the passive permeability of compounds with low efflux by P-glyocprotein (Pgp), and was used to assess permeability of a Reference Compound having the chemical formula shown below.
(§3) Cell Culture and Maintenance: • Cell stock cultures (MDCK or MDCK MDR1) are maintained in MEM+10% FBS+1% NEAA, grown in 75 cm^2 tissue culture treated flasks and split (passed) 2 times weekly to maintain desired confluence. • For maintenance passage: trypsinized cells are routinely distributed into new flasks at a standard passage ratio of 1:20.
(§4) Seeding assay plates: MDCK assay plates are seeded with MDCK or MDCK MCR1 cells 3-4 days prior to running the assay. 24-well plates are seeded at a cell density of 0.88×10^5/well in a 400 μL apical chamber volume (2.2×10^5/mL) with a […] volume of growth medium to the 24-well basal chamber. […]

[2] = as above; type: in vitro ADME, Canine; settings: dog, no Pgp inhibitor, apical to basolateral
Procedure: as §1, §2, §3, §4

integrin αvβ6 = integrin αvβ6 (Homo sapiens, UniProt P06756+P18564); assay: Fluorescence polarization assay for αvβ6 binding (competition with fluorescein-labeled peptide GRGDLGRL); settings: fluorescence polarization assay of Example 12; 10 nM integrin αvβ6, 3 nM labeled peptide; read-out: avb6. (IC50)
Procedure: Fluorescence Polarization (FP) assays were used to measure compound activity through binding competition with the fluorescein-labeled peptide GRGDLGRL. In the assay, 10 nM of integrin αvβ6 was incubated with the test compound in 2 mM manganese chloride, 0.1 mM calcium chloride, 20 mM HEPES buffer at pH 7.3, 150 mM sodium chloride, 0.01% Triton X-100, 2% DMSO, and 3 nM of the fluorescein-labeled peptide. The assays were run in 384-well plates. For both assay versions, the integrin protein was pre-incubated with the test compounds for 15 minutes at 22° C. before the fluorescein-labeled peptide was added. After the fluorescein-labeled peptide was added, the assay was incubated at 22° C. for 1 hour and fluorescence polarization was measured. IC50 values were determined by nonlinear regression, 4-parameter curve fitting (FIG. 1).

Sequence of integrin αvβ6 (P06756 31-992 limits assumed): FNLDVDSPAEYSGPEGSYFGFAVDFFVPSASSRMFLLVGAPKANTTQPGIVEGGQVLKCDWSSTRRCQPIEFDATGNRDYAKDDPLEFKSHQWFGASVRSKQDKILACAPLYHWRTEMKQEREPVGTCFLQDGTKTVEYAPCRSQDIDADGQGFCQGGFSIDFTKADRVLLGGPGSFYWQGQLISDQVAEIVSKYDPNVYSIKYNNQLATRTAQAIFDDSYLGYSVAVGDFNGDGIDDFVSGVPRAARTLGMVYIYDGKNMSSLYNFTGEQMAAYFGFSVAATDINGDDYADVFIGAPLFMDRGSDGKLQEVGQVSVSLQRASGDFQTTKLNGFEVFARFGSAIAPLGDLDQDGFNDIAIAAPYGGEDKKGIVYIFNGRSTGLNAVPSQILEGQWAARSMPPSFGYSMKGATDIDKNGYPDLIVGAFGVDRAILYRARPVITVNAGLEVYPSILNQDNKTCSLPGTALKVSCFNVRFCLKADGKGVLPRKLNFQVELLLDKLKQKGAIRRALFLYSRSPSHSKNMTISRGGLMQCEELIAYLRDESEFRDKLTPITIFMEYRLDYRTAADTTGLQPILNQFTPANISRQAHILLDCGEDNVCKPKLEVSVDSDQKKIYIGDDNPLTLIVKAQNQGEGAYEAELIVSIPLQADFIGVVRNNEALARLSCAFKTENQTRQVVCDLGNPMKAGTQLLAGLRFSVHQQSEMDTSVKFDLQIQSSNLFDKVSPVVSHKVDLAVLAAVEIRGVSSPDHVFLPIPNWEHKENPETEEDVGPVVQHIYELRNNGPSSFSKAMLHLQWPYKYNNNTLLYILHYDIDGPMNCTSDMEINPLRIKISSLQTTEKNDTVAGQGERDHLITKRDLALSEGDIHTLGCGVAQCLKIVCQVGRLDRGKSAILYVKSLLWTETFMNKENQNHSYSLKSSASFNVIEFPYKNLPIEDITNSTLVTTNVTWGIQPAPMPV
Sequence of integrin αvβ6 (P18564 22-709 limits assumed): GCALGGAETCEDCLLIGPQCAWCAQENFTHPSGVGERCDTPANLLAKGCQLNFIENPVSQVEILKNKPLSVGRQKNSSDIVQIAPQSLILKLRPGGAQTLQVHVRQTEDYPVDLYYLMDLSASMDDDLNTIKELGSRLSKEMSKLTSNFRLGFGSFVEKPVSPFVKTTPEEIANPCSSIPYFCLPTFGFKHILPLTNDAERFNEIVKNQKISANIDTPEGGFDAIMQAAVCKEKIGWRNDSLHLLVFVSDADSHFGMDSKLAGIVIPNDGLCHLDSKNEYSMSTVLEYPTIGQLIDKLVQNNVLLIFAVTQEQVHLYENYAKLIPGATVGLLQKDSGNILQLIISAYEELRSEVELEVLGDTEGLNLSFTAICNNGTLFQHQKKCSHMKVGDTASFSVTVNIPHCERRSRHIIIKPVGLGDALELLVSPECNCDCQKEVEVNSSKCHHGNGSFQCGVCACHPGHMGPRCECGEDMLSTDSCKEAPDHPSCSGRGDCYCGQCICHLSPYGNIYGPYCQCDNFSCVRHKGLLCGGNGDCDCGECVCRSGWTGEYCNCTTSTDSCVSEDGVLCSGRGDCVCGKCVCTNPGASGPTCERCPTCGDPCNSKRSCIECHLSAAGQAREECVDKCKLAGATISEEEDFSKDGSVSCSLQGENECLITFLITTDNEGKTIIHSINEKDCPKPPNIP

MDCK (A−>B) [1]: less than 0.23 | Papp A→B at 90 min, 5 μM [2]: < 0.23 ×10⁻⁶ cm/s | IC50 (integrin αvβ6): ~96.5 nM and 96.5 nM
Compound: O=C(O)CN1CCC(C(=O)N2CCC(c3ccc4c(n3)NCCC4)CC2)CC1 [Reference Compound]

From patent publication US20230219949A1, “INHIBITORS OF (ALPHA-V)(BETA-6) INTEGRIN” (priority 2018, published 2023)
